Measurements from US8906111B2, “Artificial bone material having controlled calcium ion elution” (The University of Tokyo, priority 2008, dated 2014).

What was measured:
[1] = test system: Macrophage-like cells RAW267.4; assay: Release of [3H] arachidonic acid (lipid mediator) from macrophage-like cells treated with CaCl2-gluconic acid solutions; type: cell-based; conditions: FIG. 3
Protocol: An increased concentration of extracellular calcium ions activates an inflammatory response route through increase of intracellular calcium ion and/or a sensing mechanism of extracellular calcium ion. The present inventors studied whether induction of inflammatory responses due to increase of calcium ions can be prevented or not by chelating calcium ions. Solutions of 5 mM CaCl2—0.384% gluconic acid and 7.5 mM CaCl2—0.384% gluconic acid (referred to as Ca^2+Gluc.Acid), the pH of which were adjusted to approximately 7 with NaOH, were prepared and allowed to stand for one hour at room temperature. Macrophage-like cells RAW267.4, which were labeled with 1 μCi [^3H] arachidonic acid one day before, were treated with respective CaCl2-gluconic acid solutions for one hour, and measured for the amount of released lipid mediator with a liquid scintillation counter.
FIG. 3 is a graph, in place of a drawing, showing that gluconic acid prevents inflammatory responses induced by calcium ions. Each vertical axis of FIGS. 3A and 3B indicates release of arachidonic acid (rates of released [^3H] arachidonic acid). The higher value refers to more arachidonic acid being released, indicating an activation of arachidonate cascade, which is one of the major inflammatory responses. In FIG. 3, the “mock” refers to a sample without CaCl2 or gluconic acid addition, which was prepared as a control. […]

[2] = Chelating effect on calcium ion measured with a calcium ion electrode; type: physicochemical; conditions: 0.25% to 25% gluconic acid containing 2.5 mM CaCl2, pH 7.0; FIG. 2
Protocol: To confirm chelating effects of gluconic acid on calcium ion, the concentration of calcium ion in the presence of gluconic acid was measured with a calcium ion electrode. The vertical axis of FIG. 2 indicates the concentration of calcium ion (Ca^2+) (mg/L). […] The results might be attributed to the gluconic acid chelating calcium ions.

Compound	release of arachidonic acid (amount of released lipid mediator) ([1]; CaCl2 (5 mM or 7.5 mM) without gluconic acid, compared with the mock)	concentration of calcium ion (Ca2+) [2]	release of arachidonic acid (rates of released [3H] arachidonic acid) ([1]; 5 mM or 7.5 mM CaCl2 with 0.384% gluconic acid, pH approx. 7, cells treated one hour)
[Ca+2].[Cl-].[Cl-] [CaCl2]	released increased amount of lipid mediator	–	–
O=C(O)[C@H](O)[C@@H](O)[C@H](O)[C@H](O)CO [gluconic acid]	–	the higher the concentration of gluconic acid became, the concentration of calcium ion lowered	arachidonate cascade activation was prevented
